Laboratory results: US20260217701A1, “SELECTIVE BET INHIBITORS AND USES THEREOF” (Tay Therapeutics Limited, priority 2022, published 2026)
Values joined by “and” are separate entries in the source; they are usually repeats but may differ in a detail not shown here. Identical values can stand only once. Like-named read-outs stand apart in the source and are kept apart here.

Test: CIA study: pharmacokinetics / plasma concentration after oral administration
Assay type: in vivo, Lewis rats
Conditions: for concentration at 21 day: oral
[1] = CIA-induced animals, day 0, 3 mg/kg, average
[2] = CIA-induced animals, day 0, 3 mg/kg, individual test subjects
[3] = CIA-induced animals, day 21, 3 mg/kg, average
[4] = CIA-induced animals, day 21, 3 mg/kg, individual test subjects

For `Cn1cc(-c2ccccc2)c(-c2cn(C)c(=O)c3[nH]c(-c4cnn(C(F)(F)F)c4)cc23)cc1=O` [Compound A, 6-methyl-4-(1-methyl-2-oxo-5-phenyl-1,2-dihydropyridin-4-yl)-2-(1-(trifluoromethyl)-1H-pyrazol-4-yl)-1,6-dihydro-7H-pyrrolo[2,3-c]pyridin-7-one], the “AUClast/D (Mean)” value [1] was 509 mg·h/mL, the “AUC—%Extrap—obs (Mean)” value [1] was 14.0% and the AUCInf [2] was 1393 ng·h/mL and 1454 ng·h/mL. The AUClast [2] was 1250 ng·h/mL and 1264 ng·h/mL, the “AUC—%Extrap—obs” value [2] was 18.6% and 10.3% and 13.1% and the Cmax [2] was 77.9 ng/mL and 82.6 ng/mL. For the same molecule, the “MRTInf—obs” value [2] was 10.7 h and 11.8 h, the T1/2 [2] was 7.03 h and 7.60 h and the “AUClast/D (Mean)” value [3] was 246 mg·h/mL. For the same molecule, the “AUC—%Extrap—obs (Mean)” value [3] was 17.3%, the “MRTlnf—obs (Mean)” value [3] was 13.5 h and the AUCInf [4] was 1059 ng·h/mL and 985 ng·h/mL. For the same molecule, the AUClast [4] was 826 ng·h/mL and 784 ng·h/mL, the “AUC—%Extrap—obs” value [4] was 9.67% and 22.0% and 20.4% and the Cmax [4] was 51.2 ng/mL and 45.7 ng/mL. For the same molecule, the “MRTInf—obs” value [4] was 15.5 h and 14.9 h, the T1/2 [4] was 10.3 h and 9.68 h and the “Plasma Concentration” value (Day 21, CIA rats, 1 mg/kg) was 12.8 ng/mL and 14.5 ng/mL and 13.9 ng/mL and 14.3 ng/mL and 21.1 ng/mL and 20.6 ng/mL. The “Plasma Concentration” value (Day 21, CIA rats, 10 mg/kg) was 181 ng/mL and 240 ng/mL and 230 ng/mL and 264 ng/mL and 174 ng/mL and 255 ng/mL and 248 ng/mL, the concentration at 21 day (Lewis, rat, plasma, 1 mg/kg, Day 21, CIA rats, 1 mg/kg, read-out: Plasma Concentration) was 13 ng/mL and the concentration at 21 day (Lewis, rat, plasma, 1 mg/kg, Group 5 (CIA + Compound A 1 mg/kg), read-out: Day 21 Mean Plasma Concentration) was 15.5 ng/mL. For the same molecule, the concentration at 21 day (Lewis, rat, plasma, 3 mg/kg, Group 6 (CIA + Compound A 3 mg/kg), read-out: Day 21 Mean Plasma Concentration) was 49.5 ng/mL, the concentration at 21 day (Lewis, rat, plasma, 10 mg/kg, Day 21, CIA rats, 10 mg/kg, read-out: Plasma Concentration) was 232 ng/mL and the concentration at 21 day (Lewis, rat, plasma, 10 mg/kg, Group 7 (CIA + Compound A 10 mg/kg), read-out: Day 21 Mean Plasma Concentration) was 221 ng/mL. It also gave an AUC(0-inf) (Lewis, rat, plasma, po, 3 mg/kg, CIA-induced animals, day 0, 3 mg/kg, average, read-out: AUCInf (Mean)) of 1800 ng·h/mL, an AUC(0-t) (Lewis, rat, plasma, po, 3 mg/kg, CIA-induced animals, day 0, 3 mg/kg, average, read-out: AUClast (Mean)) of 1530 ng·h/mL and a Cmax (Lewis, rat, plasma, po, 3 mg/kg, CIA-induced animals, day 0, 3 mg/kg, average, read-out: Cmax (Mean)) of 95 ng/mL. The MRT inf (Lewis, rat, plasma, po, 3 mg/kg, CIA-induced animals, day 0, 3 mg/kg, average, read-out: MRTInf—obs (Mean)) was 12.2 h, the half-life (Lewis, rat, plasma, po, 3 mg/kg, CIA-induced animals, day 0, 3 mg/kg, average, read-out: T1/2 (Mean) (converted)) was 476 min and the Tmax (Lewis, rat, plasma, po, 3 mg/kg, CIA-induced animals, day 0, 3 mg/kg, average, read-out: Tmax (Mean)) was 5.33 h. For the same molecule, the AUC(0-inf) (Lewis, rat, plasma, po, 3 mg/kg, CIA-induced animals, day 0, 3 mg/kg, individual test subjects, read-out: AUCInf) was 2540 ng·h/mL, the AUC(0-t) (Lewis, rat, plasma, po, 3 mg/kg, CIA-induced animals, day 0, 3 mg/kg, individual test subjects, read-out: AUClast) was 2070 ng·h/mL and the Cmax (Lewis, rat, plasma, po, 3 mg/kg, CIA-induced animals, day 0, 3 mg/kg, individual test subjects, read-out: Cmax) was 123 ng/mL. For the same molecule, the MRT inf (Lewis, rat, plasma, po, 3 mg/kg, CIA-induced animals, day 0, 3 mg/kg, individual test subjects, read-out: MRTInf—obs) was 14.1 h, the half-life (Lewis, rat, plasma, po, 3 mg/kg, CIA-induced animals, day 0, 3 mg/kg, individual test subjects, read-out: T1/2 (converted)) was 551 min and the Tmax (Lewis, rat, plasma, po, 3 mg/kg, CIA-induced animals, day 0, 3 mg/kg, individual test subjects, read-out: Tmax) was 6 h. For the same molecule, the AUC(0-t) (Lewis, rat, plasma, po, 3 mg/kg, CIA-induced animals, day 21, 3 mg/kg, average, read-out: AUClast (Mean)) was 738 ng·h/mL, the Cmax (Lewis, rat, plasma, po, 3 mg/kg, CIA-induced animals, day 21, 3 mg/kg, average, read-out: Cmax (Mean)) was 48.4 ng/mL and the half-life (Lewis, rat, plasma, po, 3 mg/kg, CIA-induced animals, day 21, 3 mg/kg, average, read-out: T1/2 (Mean) (converted)) was 534 min. It also gave a Tmax (Lewis, rat, plasma, po, 3 mg/kg, CIA-induced animals, day 21, 3 mg/kg, average, read-out: Tmax (Mean)) of 5.33 h, an AUC(0-inf) (Lewis, rat, plasma, po, 3 mg/kg, CIA-induced animals, day 21, 3 mg/kg, individual test subjects, read-out: AUCInf) of 668 ng·h/mL and an AUC(0-t) (Lewis, rat, plasma, po, 3 mg/kg, CIA-induced animals, day 21, 3 mg/kg, individual test subjects, read-out: AUClast) of 604 ng·h/mL. It also gave a Cmax (Lewis, rat, plasma, po, 3 mg/kg, CIA-induced animals, day 21, 3 mg/kg, individual test subjects, read-out: Cmax) of 48.3 ng/mL, an MRT inf (Lewis, rat, plasma, po, 3 mg/kg, CIA-induced animals, day 21, 3 mg/kg, individual test subjects, read-out: MRTInf—obs) of 10.1 h and a half-life (Lewis, rat, plasma, po, 3 mg/kg, CIA-induced animals, day 21, 3 mg/kg, individual test subjects, read-out: T1/2 (converted)) of 407 min. The Tmax (Lewis, rat, plasma, po, 3 mg/kg, CIA-induced animals, day 21, 3 mg/kg, individual test subjects, read-out: Tmax) was 4 h, the concentration at 2 h (Lewis, rat, plasma, po, 3 mg/kg, oral 3 mg/kg, day 0, 2 h, individual test subjects, read-out: Plasma concentration) was 109 ng/mL and the concentration at 4 h (Lewis, rat, plasma, po, 3 mg/kg, oral 3 mg/kg, day 0, 4 h, individual test subjects, read-out: Plasma concentration) was 112 ng/mL. The concentration at 6 h (Lewis, rat, plasma, po, 3 mg/kg, oral 3 mg/kg, day 0, 6 h, individual test subjects, read-out: Plasma concentration) was 123 ng/mL, the concentration at 8 h (Lewis, rat, plasma, po, 3 mg/kg, oral 3 mg/kg, day 0, 8 h, individual test subjects, read-out: Plasma concentration) was 119 ng/mL and the concentration at 0.25 h (Lewis, rat, plasma, po, 3 mg/kg, oral 3 mg/kg, day 0, time 0.25, read-out: Mean Concentration (average plasma concentration)) was 16.8 ng/mL. It also gave a concentration at 0.5 h (Lewis, rat, plasma, po, 3 mg/kg, oral 3 mg/kg, day 0, time 0.5, read-out: Mean Concentration (average plasma concentration)) of 28.1 ng/mL, a concentration at 1 h (Lewis, rat, plasma, po, 3 mg/kg, oral 3 mg/kg, day 0, time 1, read-out: Mean Concentration (average plasma concentration)) of 51.1 ng/mL and a concentration at 2 h (Lewis, rat, plasma, po, 3 mg/kg, oral 3 mg/kg, day 0, time 2, read-out: Mean Concentration (average plasma concentration)) of 79 ng/mL. For the same molecule, the concentration at 4 h (Lewis, rat, plasma, po, 3 mg/kg, oral 3 mg/kg, day 0, time 4, read-out: Mean Concentration (average plasma concentration)) was 90 ng/mL, the concentration at 6 h (Lewis, rat, plasma, po, 3 mg/kg, oral 3 mg/kg, day 0, time 6, read-out: Mean Concentration (average plasma concentration)) was 94 ng/mL and the concentration at 8 h (Lewis, rat, plasma, po, 3 mg/kg, oral 3 mg/kg, day 0, time 8, read-out: Mean Concentration (average plasma concentration)) was 90 ng/mL. It also gave a concentration at 24 h (Lewis, rat, plasma, po, 3 mg/kg, oral 3 mg/kg, day 0, time 24) of 22.3 ng/mL, a concentration at 0.25 h (Lewis, rat, plasma, po, 3 mg/kg, oral 3 mg/kg, day 21, 0.25 h, individual test subjects, read-out: Plasma concentration) of 18.4 ng/mL and a concentration at 0.5 h (Lewis, rat, plasma, po, 3 mg/kg, oral 3 mg/kg, day 21, 0.5 h, individual test subjects, read-out: Plasma concentration) of 22.2 ng/mL. It also gave a concentration at 1 h (Lewis, rat, plasma, po, 3 mg/kg, oral 3 mg/kg, day 21, 1 h, individual test subjects, read-out: Plasma concentration) of 33.6 ng/mL.
